Like-named read-outs stand apart in the source and are kept apart here.
Tests used:
Dmel\Orco + Dmel\Or35a = molecular target: T1, Dmel\Orco + Dmel\Or35a (Drosophila melanogaster, UniProt Q9VNB5); experiment: Agonist activation of Dmel\Orco + Dmel\Or35a in Xenopus oocytes, two-electrode voltage clamp; type: cell-based; conditions: for EC50: concentration-response, responses normalized to 30 µM OLC3; for Emax at 100 µM: read-out: Response amplitude as percentage of response to 100 µM OLC3, Dmel\Orco + Dmel\Or35a
T1 construct: expressed in transfected cells; host or cells: Xenopus laevis oocytes (cRNA injection, pGEMHE)
T1 sequence (Q9VNB5 1-486): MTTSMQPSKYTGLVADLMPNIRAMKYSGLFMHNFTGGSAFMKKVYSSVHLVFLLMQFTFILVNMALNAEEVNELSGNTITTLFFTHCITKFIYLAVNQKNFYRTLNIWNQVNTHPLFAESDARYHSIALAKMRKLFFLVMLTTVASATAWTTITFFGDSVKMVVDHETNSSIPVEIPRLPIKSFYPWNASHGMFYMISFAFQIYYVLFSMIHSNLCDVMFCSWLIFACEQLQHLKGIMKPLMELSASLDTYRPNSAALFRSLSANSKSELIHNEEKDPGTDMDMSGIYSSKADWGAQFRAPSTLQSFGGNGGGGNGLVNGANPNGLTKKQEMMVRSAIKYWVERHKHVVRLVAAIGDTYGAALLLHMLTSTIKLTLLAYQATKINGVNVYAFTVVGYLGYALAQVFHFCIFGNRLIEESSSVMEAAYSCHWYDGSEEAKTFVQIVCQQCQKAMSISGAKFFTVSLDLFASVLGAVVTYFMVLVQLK
T1 sequence (Q9V3Q2 1-409 partner): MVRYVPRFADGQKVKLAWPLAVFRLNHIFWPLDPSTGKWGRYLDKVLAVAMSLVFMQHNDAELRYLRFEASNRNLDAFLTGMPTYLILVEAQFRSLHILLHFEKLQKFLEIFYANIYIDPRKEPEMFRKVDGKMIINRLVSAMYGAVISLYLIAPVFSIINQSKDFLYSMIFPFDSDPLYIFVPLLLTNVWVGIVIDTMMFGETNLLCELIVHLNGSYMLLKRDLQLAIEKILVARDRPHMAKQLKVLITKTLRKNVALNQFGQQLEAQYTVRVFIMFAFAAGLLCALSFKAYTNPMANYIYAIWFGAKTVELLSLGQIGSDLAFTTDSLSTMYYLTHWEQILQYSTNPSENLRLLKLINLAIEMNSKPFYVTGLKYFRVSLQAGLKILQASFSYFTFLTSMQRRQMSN
Description: (§1) Oocytes were surgically removed from mature Xenopus laevis frogs. Follicle cells were removed by treatment with Collagenase B (Boehringer Mannhem) for 2 hours at room temperature. Capped cRNA encoding each DmOR subunit was generated using mMessage mMachine kits (Ambion). For heteromeric ORs, 25 ng of cRNA encoding each OR subunit was injected into Stage V-VI Xenopus oocytes. For expression of Orco alone, 50 ng of cRNA was injected. Oocytes were incubated at 18°C in Barth’s saline (in mM: 88 NaCl, 1 KCl, 2.4 NaHCO3, 0.3 CaNO3, 0.41 CaCl2, 0.82 MgSO4, 15 HEPES, pH 7.6, and 150 µg/ml ceftazidime) for 2–5 days prior to electrophysiological recording.
(§2) Odorant and Orco ligand induced currents were recorded under two-electrode voltage clamp in Xenopus laevis oocytes expressing ORs, using an automated parallel electrophysiology system (OpusExpress 6000A; Molecular Devices). Oocytes were perfused with ND96 (in mM: 96 NaCl, 2 KCl, 1 CaCl2, 1 MgCl2, 5 HEPES, pH 7.5). Odorant stock solutions (0.5 or 1 M) and Orco ligand stock solutions (100 mM) were prepared in DMSO and diluted in ND96. Unless otherwise noted, applications were for 60 sec at a flow rate of 1.0 ml/min, with extensive washing in ND96 (9 or 20 min at 4.6 ml/min) between applications. Micropipettes were filled with 3 M KCl and had resistances of 0.2−2.0 MΩ. The holding potential was −70 mV. Current responses, filtered (4-pole, Bessel, low pass) at 20 Hz (−3 db) and sampled at 100 Hz, were captured and stored using OpusXpress 1.1 software (Molecular Devices).
(§3) Initial analysis of electrophysiological data was done using Clampfit 9.1 software (Molecular Devices). Curve fitting and statistical analyses were done using Prism 5 (Graphpad). Concentration-response data were fit to the equation: I = Imax/(1+(EC50/X)^n) where I represents the current response at a given concentration of odorant, X; Imax is the maximal response; EC50 is the concentration of agonist yielding a half maximal response; n is the apparent Hill coefficient. Concentration-inhibition data were fit to the equation: I = Imax/(1+(X/IC50)^n) where I represents the current response at a given concentration of inhibitor, X; Imax is the maximal response in the absence of inhibitor; IC50 is the concentration of inhibitor present that still allows a half maximal response from odorant; n is the apparent Hill coefficient. Statistical significance was assessed using a two-tailed unpaired t test, an F test, or a one-way analysis of variance followed by the Bonferroni’s post-test, as appropriate.

[1] = Solubility in recording solution (observation); type: physicochemical; conditions: aqueous recording solution, higher concentrations (OLC2: above 100 µM)
Description: as §2

Cqui\Orco + Cqui\Or10 [2] = molecular target: T2, Cqui\Orco + Cqui\Or10 (Culex quinquefasciatus, UniProt D5LMR7+Q309I4); experiment: Activation of Cqui\Orco + Cqui\Or10 in Xenopus oocytes, two-electrode voltage clamp; type: cell-based; conditions: for Emax at 100 µM: 100 µM compound, mean ± SEM, n=3-8, read-out: Response amplitude as percentage of response to 100 µM OLC3, Cqui\Orco + Cqui\Or10
T2 sequence (D5LMR7 entry or part of it): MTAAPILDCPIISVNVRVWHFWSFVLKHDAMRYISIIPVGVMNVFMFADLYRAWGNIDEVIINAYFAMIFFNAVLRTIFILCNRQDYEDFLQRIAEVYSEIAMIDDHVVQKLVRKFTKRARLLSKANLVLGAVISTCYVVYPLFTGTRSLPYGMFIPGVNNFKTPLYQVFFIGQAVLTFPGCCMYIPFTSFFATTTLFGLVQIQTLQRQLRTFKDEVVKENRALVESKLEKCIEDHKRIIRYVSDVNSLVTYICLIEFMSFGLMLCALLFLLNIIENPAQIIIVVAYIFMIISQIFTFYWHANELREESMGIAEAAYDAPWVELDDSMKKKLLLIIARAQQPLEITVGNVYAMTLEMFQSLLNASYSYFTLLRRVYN
T2 sequence (Q309I4 entry or part of it): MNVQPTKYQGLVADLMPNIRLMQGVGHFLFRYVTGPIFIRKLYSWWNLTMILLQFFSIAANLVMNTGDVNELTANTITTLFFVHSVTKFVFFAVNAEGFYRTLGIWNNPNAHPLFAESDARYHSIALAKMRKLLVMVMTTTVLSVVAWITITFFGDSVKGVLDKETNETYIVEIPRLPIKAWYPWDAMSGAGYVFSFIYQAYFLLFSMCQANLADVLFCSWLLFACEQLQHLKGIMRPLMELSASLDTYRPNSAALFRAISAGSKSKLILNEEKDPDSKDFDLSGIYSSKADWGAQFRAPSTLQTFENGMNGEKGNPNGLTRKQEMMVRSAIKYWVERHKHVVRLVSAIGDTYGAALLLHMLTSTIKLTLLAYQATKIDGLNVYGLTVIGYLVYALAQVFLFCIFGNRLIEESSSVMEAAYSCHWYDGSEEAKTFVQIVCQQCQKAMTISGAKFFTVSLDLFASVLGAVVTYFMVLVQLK
Description: as §1, §2, §3

Dmel\Orco = molecular target: T3, Dmel\Orco (Drosophila melanogaster, UniProt Q9VNB5); experiment: Agonist activation of homomeric Dmel\Orco in Xenopus oocytes, two-electrode voltage clamp; type: cell-based; conditions: for EC50: concentration-response, responses normalized to 30 µM OLC3, saturation not obtained for OLC3 and VUAA1; for Emax at 100 µM: read-out: Response amplitude as percentage of response to 100 µM OLC3, Dmel\Orco
T3 construct: expressed in transfected cells; host or cells: Xenopus laevis oocytes (cRNA injection, pGEMHE)
T3 sequence (Q9VNB5 1-486): T1 sequence (Q9VNB5 1-486)
Description: as §1, §2, §3

Cqui\Orco = experiment: Agonist activation of homomeric Cqui\Orco in Xenopus oocytes, two-electrode voltage clamp; type: cell-based, Culex quinquefasciatus; conditions: 100 µM compound; mean ± SEM, n=3-8
[3] = tested on: sham (water) injected oocytes; experiment: Response of sham (water) injected oocytes to Orco ligands; type: cell-based, Xenopus laevis; conditions: 100 µM, 60 sec application
Description: as §1, §2

Onub\Orco + Onub\Or1 = experiment: Agonist activation of Onub\Orco + Onub\Or1 in Xenopus oocytes, two-electrode voltage clamp; type: cell-based, Ostrinia nubilalis; conditions: 100 µM compound; mean ± SEM, n=3-8
Cqui\Orco + Cqui\Or10 [4] = molecular target: T2, Cqui\Orco + Cqui\Or10; design: method as in PMID 20623327; conditions: read-out: EC50 for activation of Cqui\Orco+Cqui\Or10 by 3-methylindole; cited from earlier work

EC50 (Cqui\Orco + Cqui\Or10 [2]; absence of OLC15, read-out: EC50 for 3-MI activation of Cqui\Orco + Cqui\Or10) | EC50 (Cqui\Orco + Cqui\Or10 [2]; in presence of 3 µM OLC15, read-out: EC50 for 3-MI activation of Cqui\Orco + Cqui\Or10 in presence of OLC15) | SMILES | EC50 (Dmel\Orco + Dmel\Or35a) | Emax at 100 µM (Dmel\Orco + Dmel\Or35a) | Solubility [1] | Emax at 100 µM (Cqui\Orco + Cqui\Or10 [2]) | EC50 (Dmel\Orco) | Emax at 100 µM (Dmel\Orco) | Response amplitude as percentage of response to 100 µM OLC3, Cqui\Orco (Cqui\Orco) | Response of sham (water) injected oocytes [3] | Response amplitude as percentage of response to 100 µM OLC3, Onub\Orco + Onub\Or1 (Onub\Orco + Onub\Or1) | EC50 (Cqui\Orco + Cqui\Or10 [4])
– | – | CCc1ccc(NC(=O)CSc2nnc(-c3cccnc3)n2CC)cc1 [VUAA1, reference compound] | 57 ± 13 µM | 50 ± 9% | not fully soluble at higher concentrations | 75 ± 3% | 190 ± 30 µM | 24 ± 7% | 18 ± 8% | No responses | 60 ± 6% | –
– | – | CCc1ccc(NC(=O)CSc2nnc(-c3ccncc3)n2CC)cc1 [OLC3] | 56 ± 8 µM | 100% | not fully soluble at higher concentrations | 100% | 346 ± 126 µM | 100% | 100% | No responses | 100% | –
– | – | CCn1c(SCC(=O)Nc2ccc(C(C)C)cc2)nnc1-c1ccncc1 [OLC12] | 18 ± 3 µM | 300 ± 41% | – | 289 ± 41% | 35 ± 3 µM | 318 ± 12% | 636 ± 78% | No responses | 306 ± 33% | –
0.313 ± 0.103 µM | 0.275 ± 0.041 µM | Cc1c[nH]c2ccccc12 [3-methylindole, reference compound] | – | – | – | – | – | – | – | – | – | 0.09 ± 0.017 µM

From publication PMC3348135, “Identification of New Agonists and Antagonists of the Insect Odorant Receptor Co-Receptor Subunit” (PLoS ONE, 2012)
